This note sets out measurements from patent US9828381B2, “Substituted pyrazolopyrimidines and method of use” (AbbVie Deutschland GmbH & Co. KG, priority 2015, dated 2017).

Each structure is given as a SMILES string. pEC50: −log10 of the molar value.

The target in the test is GABA-B receptor (Rattus norvegicus (Rat), UniProt O88871+Q9Z0U4). Nature of the test: [35S]GTPgS binding assay, rat cortical membranes, in presence of EC25 GABA. The conditions noted are these: rat brain cortex membranes; in presence of 1 μM GABA (EC25); positive allosteric modulation. The format is biochemical. On the procedure:
Preparation of Rat Brain Membranes for Native Receptor Assays
Membranes from rat brain cortex were prepared as described in detail by Olpe et al. and stored at concentrations of 1.66 mg/mL protein at −80° C. until required. (Olpe, H.-R, et al. Eur J Pharmacol 1990; 187: 27-38).
[^35S] GTPgS Binding Assay
The composition of the assay mixtures [in a final volume of 200 μL in 96-well U-bottom plates (Greiner) was as follows: 50 mM Tris-HCl buffer, pH 7.7, 10 mM MgCl2, 0.2 mM EGTA, 2 mM CaCl2, 100 mM NaCl, 20 µM guanosine 5′-diphosphate (Sigma), 0.3 nM [^35S]GTPgS (1250 Ci/mmol (PerkinElmer)), and the test compounds at increasing concentrations (from 10 nM up to […]), […] of rat cortical membranes, and a concentration of […], that has been observed in previous experiments to correspond to the EC25, a concentration that gives 25% of the maximal response of GABA. The samples were incubated at room temperature for 60 minutes on a shaker. The incubation was stopped by rapid vacuum filtration over glass-fiber filter plates (UniFilter-96 well, GF/B membrane plates, PerkinElmer) using a 96-well plate harvester (TOMTEK© Harvester). The UniFilter plate was washed five times with ice-cold wash buffer (50 mM Tris-HCl buffer, pH 7.7, 10 mM MgCl2, and 100 mM NaCl. After filtration the plate was dried for 90 minutes at 55° C. The plates were closed on the bottom with black sealing membranes, and liquid scintillation cocktail (35 μL, Betaplate Scint, PerkinElmer) was added to each well. After sealing the top of the plate, an additional incubation step of 90 minutes at room temperature followed before measuring the plate. The amount of membrane-bound [^35S]GTPgS was measured using a 96-well plate reader (Microbeta®, PerkinElmer). Nonspecific binding was measured in the presence of unlabeled 10 μM of GTPgS (Millipore) and without GABA. Basal binding was measured in the absence of 1 μM GABA, and maximal binding was measured in the presence of GABA using 1 mM GABA concentrations.
Data analysis. The concentration-response curves of compounds of the present disclosure in the presence of EC25 of GABA-B receptor agonist were generated using the GraphPad Prism® program (GraphPad Software, San Diego, Calif.). Data was normalized using basal binding as 0% and maximal binding as 100%. The curves were fitted by nonlinear regression allowing determination of EC50 values from sigmoidal dose-response curves. Each curve was performed using triplicate sample per date point and 10 concentrations.
In general terms: Binding of GTPγS marks nucleotide exchange on a G protein.

Chain of GABA-B receptor (Q9Z0U4 17-960): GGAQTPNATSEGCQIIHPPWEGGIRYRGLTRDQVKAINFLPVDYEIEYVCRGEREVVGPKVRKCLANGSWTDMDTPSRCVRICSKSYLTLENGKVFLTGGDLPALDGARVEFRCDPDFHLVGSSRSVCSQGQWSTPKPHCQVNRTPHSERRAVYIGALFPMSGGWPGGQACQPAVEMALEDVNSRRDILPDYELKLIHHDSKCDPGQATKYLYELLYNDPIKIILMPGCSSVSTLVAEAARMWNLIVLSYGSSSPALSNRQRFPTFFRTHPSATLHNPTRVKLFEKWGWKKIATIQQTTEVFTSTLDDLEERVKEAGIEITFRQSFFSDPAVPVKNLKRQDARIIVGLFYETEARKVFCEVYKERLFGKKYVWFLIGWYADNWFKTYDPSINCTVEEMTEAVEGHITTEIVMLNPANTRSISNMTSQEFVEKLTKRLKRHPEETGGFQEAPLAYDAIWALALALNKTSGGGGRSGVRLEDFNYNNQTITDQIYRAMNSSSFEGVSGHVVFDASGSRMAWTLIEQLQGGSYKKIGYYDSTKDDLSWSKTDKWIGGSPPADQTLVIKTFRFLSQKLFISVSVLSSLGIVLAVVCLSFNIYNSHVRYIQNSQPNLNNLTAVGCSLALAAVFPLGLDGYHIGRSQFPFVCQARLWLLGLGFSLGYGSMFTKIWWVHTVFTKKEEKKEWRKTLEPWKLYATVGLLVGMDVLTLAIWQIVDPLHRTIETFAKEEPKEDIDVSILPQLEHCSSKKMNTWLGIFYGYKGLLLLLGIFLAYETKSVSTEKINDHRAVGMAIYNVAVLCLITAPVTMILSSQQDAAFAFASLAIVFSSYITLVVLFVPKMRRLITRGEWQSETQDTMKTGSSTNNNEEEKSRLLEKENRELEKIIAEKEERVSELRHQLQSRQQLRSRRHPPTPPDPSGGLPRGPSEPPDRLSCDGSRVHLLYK
Chain of GABA-B receptor (O88871 41-940): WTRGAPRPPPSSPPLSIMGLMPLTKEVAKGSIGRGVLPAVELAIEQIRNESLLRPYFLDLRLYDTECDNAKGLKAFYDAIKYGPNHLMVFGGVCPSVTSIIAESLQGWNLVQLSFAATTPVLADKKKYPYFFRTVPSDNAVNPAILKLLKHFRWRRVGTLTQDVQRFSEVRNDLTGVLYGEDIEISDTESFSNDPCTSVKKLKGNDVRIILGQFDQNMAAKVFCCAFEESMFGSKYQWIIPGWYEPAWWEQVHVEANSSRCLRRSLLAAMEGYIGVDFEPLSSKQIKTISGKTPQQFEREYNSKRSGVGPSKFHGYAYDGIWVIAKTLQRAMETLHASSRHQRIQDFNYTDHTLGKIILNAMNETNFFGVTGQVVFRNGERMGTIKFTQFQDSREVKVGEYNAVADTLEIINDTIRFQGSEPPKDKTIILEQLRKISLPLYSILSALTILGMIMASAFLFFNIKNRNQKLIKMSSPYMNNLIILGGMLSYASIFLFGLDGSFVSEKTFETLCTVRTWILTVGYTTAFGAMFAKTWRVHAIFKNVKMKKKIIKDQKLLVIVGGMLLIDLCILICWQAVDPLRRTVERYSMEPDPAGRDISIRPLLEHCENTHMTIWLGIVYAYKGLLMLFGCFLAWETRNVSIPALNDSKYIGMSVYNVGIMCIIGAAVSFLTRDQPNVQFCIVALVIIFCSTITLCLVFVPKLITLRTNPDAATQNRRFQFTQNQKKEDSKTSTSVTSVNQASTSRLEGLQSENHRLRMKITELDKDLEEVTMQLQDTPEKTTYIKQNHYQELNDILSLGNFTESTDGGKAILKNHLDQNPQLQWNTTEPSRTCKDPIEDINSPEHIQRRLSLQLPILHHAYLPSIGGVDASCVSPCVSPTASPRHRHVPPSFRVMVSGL

Usually pEC50 stands for −log10 of the EC50, conventionally taken in molar units. Take `CCC(c1ccc(Cl)cc1)c1cc2nc(C)cc(N3CCCC(F)(F)C3)n2n1` (stereo not shown) [Example 3-2, 2-[1-(4-chlorophenyl)propyl]-7-(3,3-difluoropiperidin-1-yl)-5-methylpyrazolo[1,5-a]pyrimidine]: the negative-log EC50 (pEC50) is 7.85.
For the molecule `Cc1cc(N2CC[C@H]2C(=O)O)n2nc(C(C)c3ccc(C(F)(F)F)cc3)cc2n1` (stereo partly drawn) [Example 8-10, (2S)-1-(5-methyl-2-{1-[4-(trifluoromethyl)phenyl]ethyl}pyrazolo[1,5-a]pyrimidin-7-yl)azetidine-2-carboxylic acid], the negative-log EC50 (pEC50) is less than 5.00.
The same measure for `Cc1cc(N2CCC(F)(F)C2)n2nc(C(C)c3ccc(Cl)cc3)cc2n1` (stereo not shown) [Example 2-3, 2-[1-(4-chlorophenyl)ethyl]-7-(3,3-difluoropyrrolidin-1-yl)-5-methylpyrazolo[1,5-a]pyrimidine]: 6.29; for `Cc1cc(N2CCCCC2CCO)n2nc(C(C)c3ccc(C(F)(F)F)cc3)cc2n1` (stereo not shown) [Example 8-2, 2-[1-(5-methyl-2-{1-[4-(trifluoromethyl)phenyl]ethyl}pyrazolo[1,5-a]pyrimidin-7-yl)piperidin-2-yl]ethanol]: 7.06.
Turning to `Cc1cc(N2CCCC(C(N)=O)C2)n2nc(Cc3ccc(Cl)cc3)cc2n1` (stereo not shown) [Example 1-19, 1-[2-(4-chlorobenzyl)-5-methylpyrazolo[1,5-a]pyrimidin-7-yl]piperidine-3-carboxamide], the negative logarithm of the EC50 (pEC50) was 5.00.
For the molecule `Cc1cc(N2CCC[C@H](O)C2)n2nc(C(C)c3ccc(Cl)cc3)cc2n1` (stereo partly drawn) [Example 2-10, (3S)-1-{2-[1-(4-chlorophenyl)ethyl]-5-methylpyrazolo[1,5-a]pyrimidin-7-yl}piperidin-3-ol], the pEC50 was 6.82.
On to `Cc1cc(N2CC3(CCOCC3)C2)n2nc(C(C)c3ccc(Cl)cn3)cc2n1` (stereo not shown) [Example 9-9, 2-[1-(5-chloropyridin-2-yl)ethyl]-5-methyl-7-(7-oxa-2-azaspiro[3.5]non-2-yl)pyrazolo[1,5-a]pyrimidine], for which the pEC50 is less than 5.00.
On to `CCCC(c1ccc(Cl)cc1)c1cc2nc(C)cc(N3CCCC(F)(F)C3)n2n1` (stereo not shown) [Example 5-2, 2-[1-(4-chlorophenyl)butyl]-7-(3,3-difluoropiperidin-1-yl)-5-methylpyrazolo[1,5-a]pyrimidine], for which the pEC50 is 8.15.
As for `Cc1cc(N2CC[C@H]2C(N)=O)n2nc(C(C)c3ccc(C(F)(F)F)cc3)cc2n1` (stereo partly drawn) [Example 8-1, (2S)-1-(5-methyl-2-{1-[4-(trifluoromethyl)phenyl]ethyl}pyrazolo[1,5-a]pyrimidin-7-yl)azetidine-2-carboxamide], the pEC50 was less than 5.00.
Regarding `CC(=O)N[C@H]1CCN(c2cc(C)nc3cc(C(C)c4ccc(C(F)(F)F)cc4)nn23)C1` (stereo partly drawn) [Example 8-7, N-[(3S)-1-(5-methyl-2-{1-[4-(trifluoromethyl)phenyl]ethyl}pyrazolo[1,5-a]pyrimidin-7-yl)pyrrolidin-3-yl]acetamide], the pEC50 was 5.70.
As to `Cc1cc(N2CCC3(CC2)COC3)n2nc(C(C)c3ccc(C(F)(F)F)cc3)cc2n1` (stereo not shown) [Example 8-21, 5-methyl-7-(2-oxa-7-azaspiro[3.5]non-7-yl)-2-{1-[4-(trifluoromethyl)phenyl]ethyl}pyrazolo[1,5-a]pyrimidine], the negative logarithm of the EC50 (pEC50) is 6.25.
With `Cc1cc(N2CCCC(F)C2)n2nc(C(C)c3ccc(Cl)cc3)cc2n1` (stereo not shown) [Example 2-6, 2-[1-(4-chlorophenyl)ethyl]-7-(3-fluoropiperidin-1-yl)-5-methylpyrazolo[1,5-a]pyrimidine], the pEC50 is 6.62.
With `Cc1cc(NC2CC(F)(F)C2)n2nc(C(C)c3ccc(C(F)(F)F)cc3)cc2n1` (stereo not shown) [Example 8-20, N-(3,3-difluorocyclobutyl)-5-methyl-2-{1-[4-(trifluoromethyl)phenyl]ethyl}pyrazolo[1,5-a]pyrimidin-7-amine], the pEC50 was 6.30.
Turning to `Cc1cc(NC2(C)CC2)n2nc(C(C)c3ccc(C(F)(F)F)cc3)cc2n1` (stereo not shown) [Example 8-8, 5-methyl-N-(1-methylcyclopropyl)-2-{1-[4-(trifluoromethyl)phenyl]ethyl}pyrazolo[1,5-a]pyrimidin-7-amine], the pEC50 was 6.13.
`Cc1cc(N2CCCC(F)(F)C2)n2nc(C(C)c3ccc(Cl)cn3)cc2n1` (stereo not shown) [Example 9-4, 2-[1-(5-chloropyridin-2-yl)ethyl]-7-(3,3-difluoropiperidin-1-yl)-5-methylpyrazolo[1,5-a]pyrimidine]: the pEC50 was 6.20.
As for `CC[C@@H]1CCCCN1c1cc(C)nc2cc(C(C)c3ccc(Cl)cc3)nn12` (stereo partly drawn) [Example 2-22, 2-[1-(4-chlorophenyl)ethyl]-7-[(2R)-2-ethylpiperidin-1-yl]-5-methylpyrazolo[1,5-a]pyrimidine], the negative logarithm of the EC50 (pEC50) was 7.15.
On to `Cc1cc(N2CCC(O)C(F)(F)C2)n2nc(Cc3ccc(Cl)cc3)cc2n1` (stereo not shown) [Example 1-5, 1-[2-(4-chlorobenzyl)-5-methylpyrazolo[1,5-a]pyrimidin-7-yl]-3,3-difluoropiperidin-4-ol], for which the pEC50 is 5.23.
`Cc1cc(NC(C)(C)C)n2nc(C(C)c3ccc(C(F)(F)F)cc3)cc2n1` (stereo not shown) [Example 8-19, N-tert-butyl-5-methyl-2-{1-[4-(trifluoromethyl)phenyl]ethyl}pyrazolo[1,5-a]pyrimidin-7-amine]: the negative-log EC50 (pEC50) was 6.56.
The same measure for `Cc1cc(NC2(C)CC2)n2nc(Cc3ccc(Cl)cc3)cc2n1` [Example 1-3, 2-(4-chlorobenzyl)-5-methyl-N-(1-methylcyclopropyl)pyrazolo[1,5-a]pyrimidin-7-amine]: 5.59.
Take `Cc1cc(NC2CC(F)C2)n2nc(C(C)c3ccc(Cl)cc3)cc2n1` (stereo not shown) [Example 2-14, 2-[1-(4-chlorophenyl)ethyl]-N-(3-fluorocyclobutyl)-5-methylpyrazolo[1,5-a]pyrimidin-7-amine]: the negative logarithm of the EC50 (pEC50) is 6.78.
With `Cc1cc(N2CCC2)n2nc(Cc3ccc(Cl)cc3)cc2n1` [Example 1-13, 7-(azetidin-1-yl)-2-(4-chlorobenzyl)-5-methylpyrazolo[1,5-a]pyrimidine], the pEC50 was less than 5.00.
As for `Cc1cc(N2CC[C@@H](NS(C)(=O)=O)C2)n2nc(Cc3ccc(Cl)cc3)cc2n1` [Example 10-1, N-{(3R)-1-[2-(4-chlorobenzyl)-5-methylpyrazolo[1,5-a]pyrimidin-7-yl]pyrrolidin-3-yl}methanesulfonamide], the pEC50 is less than 5.00.
For `Cc1cc(N2CCCCC2=O)n2nc(Cc3ccc(Cl)cc3)cc2n1` [Example 1-10, 1-[2-(4-chlorobenzyl)-5-methylpyrazolo[1,5-a]pyrimidin-7-yl]piperidin-2-one], the negative-log EC50 (pEC50) was less than 5.00.
`Cc1cc(NC(C)(C)C)n2nc(C(C)c3ccc(Cl)cc3)cc2n1` (stereo not shown) [Example 2-8, N-tert-butyl-2-[1-(4-chlorophenyl)ethyl]-5-methylpyrazolo[1,5-a]pyrimidin-7-amine]: the pEC50 was 7.15.
With `Cc1cc(N2CCCC2)n2nc(Cc3ccc(Cl)cc3)cc2n1` [Example 1-12, 2-(4-chlorobenzyl)-5-methyl-7-(pyrrolidin-1-yl)pyrazolo[1,5-a]pyrimidine] the figure was 5.40; with `Cc1cc(N2CCC(F)(F)C2)n2nc(C(C)c3ccc(C(F)(F)F)cc3)cc2n1` (stereo not shown) [Example 8-15, 7-(3,3-difluoropyrrolidin-1-yl)-5-methyl-2-{1-[4-(trifluoromethyl)phenyl]ethyl}pyrazolo[1,5-a]pyrimidine], 6.24.
Take `Cc1cc(N2CCCCC2CO)n2nc(C(C)c3ccc(C(F)(F)F)cc3)cc2n1` (stereo not shown) [Example 8-9, [1-(5-methyl-2-{1-[4-(trifluoromethyl)phenyl]ethyl}pyrazolo[1,5-a]pyrimidin-7-yl)piperidin-2-yl]methanol]: the negative logarithm of the EC50 (pEC50) was 6.46.
Turning to `Cc1cc(NCC2CC(F)(F)C2)n2nc(C(C)c3ccc(C(F)(F)F)cc3)cc2n1` (stereo not shown) [Example 8-14, N-[(3,3-difluorocyclobutyl)methyl]-5-methyl-2-{1-[4-(trifluoromethyl)phenyl]ethyl}pyrazolo[1,5-a]pyrimidin-7-amine], the pEC50 is 6.23.
